From patent US20240190824A1, “INHIBITORS OF TREK (TWIK RELATED K+ CHANNELS) CHANNEL FUNCTION” (ONO PHARMACEUTICAL CO., LTD., priority 2019, published 2024)

Molecular target: human TREK-1 (Homo sapiens (Human), UniProt O95069)
Assay: TREK-1 Thallium (Tl+) flux assay
Assay type: cell-based
Settings: CHO-K1 cells stably expressing human TREK-1

Chain of human TREK-1 (O95069 whole entry): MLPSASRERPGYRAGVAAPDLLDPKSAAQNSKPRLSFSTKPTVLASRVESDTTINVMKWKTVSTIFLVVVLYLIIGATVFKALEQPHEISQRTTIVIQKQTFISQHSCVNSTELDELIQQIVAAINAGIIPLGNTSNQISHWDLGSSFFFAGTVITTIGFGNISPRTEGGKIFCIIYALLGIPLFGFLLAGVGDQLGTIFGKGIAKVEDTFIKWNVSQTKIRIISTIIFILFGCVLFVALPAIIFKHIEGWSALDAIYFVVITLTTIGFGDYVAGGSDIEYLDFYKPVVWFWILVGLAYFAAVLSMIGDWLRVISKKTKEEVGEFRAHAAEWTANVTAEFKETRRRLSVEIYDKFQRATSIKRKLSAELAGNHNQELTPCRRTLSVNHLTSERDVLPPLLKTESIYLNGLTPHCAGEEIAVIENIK

Cc1cc(C#Cc2ccccc2)cnc1NC(=O)c1cc(OC[C@H]2COCCO2)ccc1Cl [Compound 21, 2-chloro-5-[[(2R)-1,4-dioxan-2-yl]methoxy]-N-[3-methyl-5-(2-phenylethynyl)-2-pyridyl]benzamide]
IC50: 110 nM

O=C(Nc1ncc(-c2ccn(-c3ccc(F)cc3)n2)cc1F)c1cc(NC(=O)C2COCCO2)ccc1Cl (stereo not shown) [Compound 98, N-[4-chloro-3-[[3-fluoro-5-[1-(4-fluorophenyl)pyrazol-3-yl]-2-pyridyl]carbamoyl]phenyl]1,4-dioxane-2-carboxamide]
IC50: 560 nM

Cc1cc(C#Cc2ccccc2)cnc1NC(=O)c1cc(-c2cnn(CCN3CCOCC3)c2)ccc1Cl [Compound 62, 2-chloro-N-[3-methyl-5-(2-phenylethynyl)-2-pyridyl]-5-[1-(2-morpholinoethyl)pyrazol-4-yl]benzamide]
IC50: 170 nM

Cc1nc(C)c(-c2ccc(Cl)c(C(=O)Nc3ncc(C#Cc4ccccc4)cc3F)c2)s1 [Compound 67, 2-chloro-5-(2,4-dimethylthiazol-5-yl)-N-[3-fluoro-5-(2-phenylethynyl)-2-pyridyl]benzamide]
IC50: 210 nM

Cc1cc(C#Cc2ccccc2)cnc1NC(=O)c1cc(-c2ccnn2C)ccc1Cl [Compound 61, 2-chloro-N-[3-methyl-5-(2-phenylethynyl)-2-pyridyl]-5-(2-methylpyrazol-3-yl)benzamide]
IC50: 160 nM

Cc1cc(C#Cc2ccccc2)cnc1NC(=O)c1c(Cl)ccc(NC(=O)OC(C)(C)C)c1F [Compound 34, tert-butyl N-[4-chloro-2-fluoro-3-[[3-methyl-5-(2-phenylethynyl)-2-pyridyl]carbamoyl]phenyl]carbamate]
IC50: 360 nM

C[C@H]1C[C@@H]1C(=O)Nc1ccc(Cl)c(C(=O)Nc2ncc(C#Cc3ccccc3)cc2F)c1 [Compound 2, 2-chloro-N-[3-fluoro-5-(2-phenylethynyl)-2-pyridyl]-5-[[(1S,2S)-2-methylcyclopropanecarbonyl]amino]benzamide]
IC50: 90 nM

Cc1cc(C#Cc2ccccc2)cnc1NC(=O)c1cc(C#N)ccc1Cl [Compound 53, 2-chloro-5-cyano-N-(3-methyl-5-(phenylethynyl)pyridin-2-yl)benzamide]
IC50: 810 nM

Cc1cc(C#Cc2ccccc2)cnc1NC(=O)c1cc(-c2cnn(C3CCOCC3)c2)ccc1Cl [Compound 65, 2-chloro-N-[3-methyl-5-(2-phenylethynyl)-2-pyridyl]-5-(1-tetrahydropyran-4-ylpyrazol-4-yl)benzamide]
IC50: 200 nM

Cc1cc(C#Cc2ccccc2)cnc1NC(=O)c1nc(NC(=O)C2CC2C)ccc1Cl (stereo not shown) [Compound 33, 3-chloro-6-[(2-methylcyclopropanecarbonyl)amino]-N-[3-methyl-5-(2-phenylethynyl)-2-pyridyl]pyridine-2-carboxamide]
IC50: 290 nM

Cc1cc(C)n(C(=O)c2ccc(Cl)c(C(=O)Nc3ncc(C#Cc4ccccc4)cc3C)c2)n1 [Compound 72, 2-chloro-5-(3,5-dimethylpyrazole-1-carbonyl)-N-[3-methyl-5-(2-phenylethynyl)-2-pyridyl]benzamide]
IC50: 360 nM

Cc1cc(OCc2ccccc2)cnc1NC(=O)c1cc(NC(=O)OC(C)(C)C)ccc1Cl [Compound 87, tert-butyl N-[3-[(5-benzyloxy-3-methyl-2-pyridyl)carbamoyl]-4-chloro-phenyl]carbamate]
IC50: 560 nM

Cc1cc(C#Cc2ccccc2)cnc1NC(=O)c1nc(NC(=O)OC(C)(C)C)ccc1Cl [Compound 43, tert-butyl N-[5-chloro-6-[[3-methyl-5-(2-phenylethynyl)-2-pyridyl]carbamoyl]-2-pyridyl]carbamate]
IC50: 550 nM

Cc1cc(C#Cc2cccc(F)c2)nc(C)c1NC(=O)c1cc(NC(=O)[C@H]2C[C@@H]2C)ccc1Cl [Compound 49, 2-chloro-N-[6-[2-(3-fluorophenyl)ethynyl]-2,4-dimethyl-3-pyridyl]-5-[[(1S,2S)-2-methylcyclopropanecarbonyl]amino] benzamide]
IC50: 1090 nM

CC(C)(C)OC(=O)Nc1ccc(Cl)c(C(=O)Nc2ncc(C#Cc3ccccc3)cc2F)n1 [Compound 38, tert-butyl N-[5-chloro-6-[[3-fluoro-5-(2-phenylethynyl)-2-pyridyl]carbamoyl]-2-pyridyl]carbamate]
IC50: 440 nM

COCCOc1ccc(Cl)c(C(=O)Nc2ncc(C#Cc3ccccc3)cc2C)c1 [Compound 24, 2-chloro-5-(2-methoxyethoxy)-N-[3-methyl-5-(2-phenylethynyl)-2-pyridyl]benzamide]
IC50: 230 nM

Cc1cc(C#Cc2ccc(F)cc2)cnc1NC(=O)c1cc(NC(=O)C2COCCO2)ccc1Cl (stereo not shown) [Compound 14, N-[4-chloro-3-[[5-[2-(4-fluorophenyl)ethynyl]-3-methyl-2-pyridyl]carbamoyl]phenyl]-1,4-dioxane-2-carboxamide]
IC50: 230 nM

Cc1cc(-c2cnn(-c3ccc(F)cc3)c2)cnc1NC(=O)c1cc(NC(=O)OC(C)(C)C)ccc1Cl [Compound 94, tert-butyl N-[4-chloro-3-[[5-[1-(4-fluorophenyl)pyrazol-4-yl]-3-methyl-2-pyridyl]carbamoyl]phenyl]carbamate]
IC50: 200 nM

O=C(Nc1ncc(C#Cc2ccccc2)cc1F)c1cc(-c2noc(C3CCOC3)n2)ccc1Cl (stereo not shown) [Compound 54]
IC50: 80 nM

Cc1cc(C#Cc2ccccc2)cnc1NC(=O)c1cc(C(=O)NC(C)(C)CO)ccc1Cl [Compound 17, 4-chloro-N1-(2-hydroxy-1,1-dimethyl-ethyl)-N3-[3-methyl-5-(2-phenylethynyl)-2-pyridyl]benzene-1,3-dicarboxamide]
IC50: 180 nM

O=C(Nc1ncc(C#Cc2ccc(F)cc2)cc1F)c1cc(NC(=O)C2CC2)ccc1Cl [Compound 7, 2-chloro-5-(cyclopropanecarbonylamino)-N-[3-fluoro-5-[2-(4-fluorophenyl)ethynyl]-2-pyridyl]benzamide]
IC50: 150 nM

Cc1cc(C#Cc2ccccn2)cnc1NC(=O)c1cc(NC(=O)OC(C)(C)C)ccc1Cl [Compound 15, tert-butyl N-[4-chloro-3-[[3-methyl-5-[2-(2-pyridyl)ethynyl]-2-pyridyl]carbamoyl]phenyl]carbamate]
IC50: 370 nM

Cc1cc(OCc2ccccc2)cc(C)c1NC(=O)c1cc(NC(=O)OC(C)(C)C)ccc1Cl [Compound 88, tert-butyl (3-((4-(benzyloxy)-2,6-dimethylphenyl)carbamoyl)-4-chlorophenyl)carbamate]
IC50: 360 nM

Cc1cc(C#Cc2cccnc2)cnc1NC(=O)c1cc(NC(=O)OC(C)(C)C)ccc1Cl [Compound 41, tert-butyl N-[4-chloro-3-[[3-methyl-5-[2-(3-pyridyl)ethynyl]-2-pyridyl]carbamoyl]phenyl]carbamate]
IC50: 530 nM

Cc1cc(C#Cc2ccccc2)cnc1NC(=O)c1cc(NC(=O)C2CC2)ccc1Cl [Compound 9, 2-chloro-5-(cyclopropanecarbonylamino)-N-[3-methyl-5-(2-phenylethynyl)-2-pyridyl]benzamide]
IC50: 180 nM

Cc1cc(C#Cc2ccccc2)cnc1NC(=O)c1cc(NC(=O)C2COCCO2)ccc1Cl (stereo not shown) [Compound 31, N-[4-chloro-3-[[3-methyl-5-(2-phenylethynyl)-2-pyridyl]carbamoyl]phenyl]-1,4-dioxane-2-carboxamide]
IC50: 260 nM

Cc1cc(C#Cc2ccccc2)cnc1NC(=O)c1cc(OCC2COCCO2)ccc1Cl (stereo not shown) [Compound 22, 2-chloro-5-(1,4-dioxan-2-ylmethoxy)-N-[3-methyl-5-(2-phenylethynyl)-2-pyridyl]benzamide]
IC50: 130 nM

Cc1cc(C#Cc2ccccc2)cnc1NC(=O)c1cc(NC(=O)OC(C)(C)C)ccc1F [Compound 50, tert-butyl N-[4-fluoro-3-[[3-methyl-5-(2-phenylethynyl)-2-pyridyl]carbamoyl]phenyl]carbamate]
IC50: 1080 nM

CCn1ccc(-c2ccc(Cl)c(C(=O)Nc3ncc(C#Cc4ccccc4)cc3C)c2)n1 [Compound 64, 2-chloro-5-(1-ethylpyrazol-3-yl)-N-[3-methyl-5-(2-phenylethynyl)-2-pyridyl]benzamide]
IC50: 200 nM

Cc1cc(-c2noc(-c3ccc(F)cc3)n2)cnc1NC(=O)c1cc(NC(=O)OC(C)(C)C)ccc1Cl [Compound 95, tert-butyl N-[4-chloro-3-[[5-[5-(4-fluorophenyl)-1,2,4-oxadiazol-3-yl]-3-methyl-2-pyridyl]carbamoyl]phenyl]carbamate]
IC50: 230 nM

CC(C)(C)OC(=O)Nc1ccc(Cl)c(C(=O)Nc2ncc(-c3cc(-c4ccccc4)no3)cc2F)c1 [Compound 96, tert-butyl N-[4-chloro-3-[[3-fluoro-5-(3-phenylisoxazol-5-yl)-2-pyridyl]carbamoyl]phenyl]carbamate]
IC50: 230 nM

Cc1cc(C#Cc2ccccc2)cnc1NC(=O)c1cc(-c2nc(C3CC3)no2)ccc1Cl [Compound 57, 2-chloro-5-(3-cyclopropyl-1,2,4-oxadiazol-5-yl)-N-[3-methyl-5-(2-phenylethynyl)-2-pyridyl]benzamide]
IC50: 130 nM

Cn1cc(-c2ccc(Cl)c(C(=O)Nc3ncc(C#Cc4ccccc4)cc3F)c2)cn1 [Compound 59, 2-chloro-N-[3-fluoro-5-(2-phenylethynyl)-2-pyridyl]-5-(1-methylpyrazol-4-yl)benzamide]
IC50: 130 nM

Cc1cc(C#Cc2cccc(F)c2)cnc1NC(=O)c1cc(NC(=O)C2COCCO2)ccc1Cl (stereo not shown) [Compound 13, N-[4-chloro-3-[[5-[2-(3-fluorophenyl)ethynyl]-3-methyl-2-pyridyl]carbamoyl]phenyl]-1,4-dioxane-2-carboxamide]
IC50: 280 nM

Cc1cc(C#Cc2ccccc2)cnc1NC(=O)c1cc(C(=O)N2CC(O)(C(F)(F)F)C2)ccc1Cl [Compound 79, 2-chloro-5-[3-hydroxy-3-(trifluoromethyl)azetidine-1-carbonyl]-N-[3-methyl-5-(2-phenylethynyl)-2-pyridyl]benzamide]
IC50: 870 nM

Cc1cc(C#Cc2ccccc2)cnc1NC(=O)c1cc(NC(=O)[C@@H]2C[C@H]2C)ccc1Cl [Compound 36, 2-chloro-5-[[(1R,2R)-2-methylcyclopropanecarbonyl]amino]-N-[3-methyl-5-(2-phenylethynyl)-2-pyridyl]benzamide]
IC50: 420 nM

Cc1cc(C#Cc2cnccn2)cnc1NC(=O)c1cc(NC(=O)OC(C)(C)C)ccc1Cl [Compound 39, tert-butyl N-[4-chloro-3-[[3-methyl-5-(2-pyrazin-2-ylethynyl)-2-pyridyl]carbamoyl]phenyl]carbamate]
IC50: 470 nM
